Results as given in ChEMBL document CHEMBL3132850, “5-Nor carbocyclic nucleosides: unusual nonnucleoside inhibitors of HIV-1 reverse transcriptase” (Medchemcomm, 2013).
Activity calls are given as the source filed them. The calls are words filed in the database; no cut-off is given here.

system: Mammalian orthoreovirus 1; assay: Antiviral activity against Reovirus-1; type: functional, organism-based; settings: not given

Which Activity does the source give for `O=C(OC1C=CC(n2ccc(=O)n(Cc3ccccc3)c2=O)C1)c1ccccc1` (racemic) here?
The Activity was “inactive”.

biological target: Human immunodeficiency virus type 1 reverse transcriptase (Human immunodeficiency virus 1, UniProt Q72547, K103N); assay: Inhibition of HIV1 reverse transcriptase K103N mutant expressed in Escherichia coli BL21 (DE3) using [alpha-32P]dATP after 30 mins by liquid scintillation counting; settings: not given

With `O=C(OC1C=CC(n2ccc(=O)n(Cc3ccccc3)c2=O)C1)c1ccccc1` (racemic) as the molecule, how does the IC50 read?
Its IC50 is 33.6 µM.

system: Feline coronavirus; assay: Antiviral activity against Feline coronavirus; type: functional, organism-based; settings: not given

With `O=C(OC1C=CC(n2ccc(=O)n(Cc3ccccc3)c2=O)C1)c1ccccc1` (racemic) as the molecule, how does the Activity read?
Its Activity is “inactive”.

system: Influenza A virus H3N2; assay: Antiviral activity against Influenza A virus H3N2; type: functional, organism-based; settings: not given

With `O=C(OC1C=CC(n2ccc(=O)n(Cc3ccccc3)c2=O)C1)c1ccccc1` (racemic) as the molecule, how does the Activity read?
The Activity was “inactive”.

system: Vesicular stomatitis virus; assay: Antiviral activity against Vesicular stomatitis virus; type: functional, organism-based; settings: not given

For `O=C(OC1C=CC(n2ccc(=O)n(Cc3ccccc3)c2=O)C1)c1ccccc1` (racemic), which Activity is on record?
The Activity was “inactive”.

biological target: Human immunodeficiency virus type 1 reverse transcriptase (Human immunodeficiency virus 1, UniProt Q72547); assay: Inhibition of HIV1 wild type reverse transcriptase expressed in Escherichia coli BL21 (DE3) using [alpha-32P]dATP after 30 mins by liquid scintillation counting; settings: not given

Which IC50 does the source give for `O=C(OC1C=CC(n2ccc(=O)n(Cc3ccccc3)c2=O)C1)c1ccccc1` (racemic) here?
Its IC50 is 13.4 µM.

biological target: Human immunodeficiency virus type 1 reverse transcriptase (Human immunodeficiency virus 1, UniProt Q72547, V106A); assay: Inhibition of HIV1 reverse transcriptase V106A mutant expressed in Escherichia coli BL21 (DE3) using [alpha-32P]dATP after 30 mins by liquid scintillation counting; settings: not given

Which IC50 does the source give for `O=C(OC1C=CC(n2ccc(=O)n(Cc3ccccc3)c2=O)C1)c1ccccc1` (racemic) here?
The IC50 was greater than 50 µM.

system: Human alphaherpesvirus 1; assay: Antiviral activity against Herpes simplex virus-1 KOS; type: functional, organism-based; settings: not given

For `O=C(OC1C=CC(n2ccc(=O)n(Cc3ccccc3)c2=O)C1)c1ccccc1` (racemic), which Activity is on record?
The Activity was “inactive”.

system: Vaccinia virus; assay: Antiviral activity against Vaccinia virus; type: functional, organism-based; settings: Orthopoxvirus vaccinia

With `O=C(OC1C=CC(n2ccc(=O)n(Cc3ccccc3)c2=O)C1)c1ccccc1` (racemic) as the molecule, how does the Activity read?
The Activity was “inactive”.

system: Coxsackievirus B4; assay: Antiviral activity against Coxsackievirus B4; type: functional, organism-based; settings: not given

For `O=C(OC1C=CC(n2ccc(=O)n(Cc3ccccc3)c2=O)C1)c1ccccc1` (racemic), which Activity is on record?
Its Activity is “inactive”.

system: Influenza B virus; assay: Antiviral activity against Influenza B virus; type: functional, organism-based; settings: not given

Which Activity does the source give for `O=C(OC1C=CC(n2ccc(=O)n(Cc3ccccc3)c2=O)C1)c1ccccc1` (racemic) here?
The Activity was “inactive”.

system: Human immunodeficiency virus 1; assay: Antiviral activity against HIV1 3B infected in human CEM cells assessed as reduction of giant cell formation after 4 days by microscopic analysis; type: functional, organism-based; settings: Human immunodeficiency virus 1, 3B, CCRF-CEM, 96 h

Which EC50 does the source give for `O=C(OC1C=CC(n2ccc(=O)n(Cc3ccccc3)c2=O)C1)c1ccccc1` (racemic) here?
Its EC50 is greater than 10 µM.

system: Influenza A virus; assay: Antiviral activity against Influenza A virus H1N1; type: functional, organism-based; settings: not given

For `O=C(OC1C=CC(n2ccc(=O)n(Cc3ccccc3)c2=O)C1)c1ccccc1` (racemic), which Activity is on record?
Its Activity is “inactive”.

biological target: Human immunodeficiency virus type 1 reverse transcriptase (Human immunodeficiency virus 1, UniProt Q72547, Y181C); assay: Inhibition of HIV1 reverse transcriptase Y181C mutant expressed in Escherichia coli BL21 (DE3) using [alpha-32P]dATP after 30 mins by liquid scintillation counting; settings: not given

For `O=C(OC1C=CC(n2ccc(=O)n(Cc3ccccc3)c2=O)C1)c1ccccc1` (racemic), which IC50 is on record?
The IC50 was greater than 50 µM.

system: Punta Toro virus; assay: Antiviral activity against Punta Toro virus; type: functional, organism-based; settings: not given

Which Activity does the source give for `O=C(OC1C=CC(n2ccc(=O)n(Cc3ccccc3)c2=O)C1)c1ccccc1` (racemic) here?
The Activity was “inactive”.

biological target: Human immunodeficiency virus type 1 reverse transcriptase (Human immunodeficiency virus 1, UniProt Q72547, K103N/Y181C); assay: Inhibition of HIV1 reverse transcriptase K103N/Y181C mutant expressed in Escherichia coli BL21 (DE3) using [alpha-32P]dATP after 30 mins by liquid scintillation counting; settings: not given

With `O=C(OC1C=CC(n2ccc(=O)n(Cc3ccccc3)c2=O)C1)c1ccccc1` (racemic) as the molecule, how does the IC50 read?
Its IC50 is greater than 50 µM.

system: Human alphaherpesvirus 2; assay: Antiviral activity against Herpes simplex virus-2 G; type: functional, organism-based; settings: strain G

With `O=C(OC1C=CC(n2ccc(=O)n(Cc3ccccc3)c2=O)C1)c1ccccc1` (racemic) as the molecule, how does the Activity read?
Its Activity is “inactive”.

system: Sindbis virus; assay: Antiviral activity against Sindbis virus; type: functional, organism-based; settings: not given

For `O=C(OC1C=CC(n2ccc(=O)n(Cc3ccccc3)c2=O)C1)c1ccccc1` (racemic), which Activity is on record?
The Activity was “inactive”.

system: Respiratory syncytial virus; assay: Antiviral activity against Respiratory syncytial virus; type: functional, organism-based; settings: not given

With `O=C(OC1C=CC(n2ccc(=O)n(Cc3ccccc3)c2=O)C1)c1ccccc1` (racemic) as the molecule, how does the Activity read?
The Activity was “inactive”.

system: Human alphaherpesvirus 3; assay: Antiviral activity against Varicella-zoster virus; type: functional, organism-based; settings: not given

With `O=C(OC1C=CC(n2ccc(=O)n(Cc3ccccc3)c2=O)C1)c1ccccc1` (racemic) as the molecule, how does the Activity read?
Its Activity is “inactive”.

system: not listed separately; assay: Cytotoxicity against human CEM cells after 3 days; type: cell-based; settings: CEM cells (CCRF-CEM)

With `O=C(OC1C=CC(n2ccc(=O)n(Cc3ccccc3)c2=O)C1)c1ccccc1` (racemic) as the molecule, how does the CC50 at 72 h read?
The CC50 at 72 h was greater than 25 µM.

system: Human respirovirus 3; assay: Antiviral activity against Parainfluenza virus 3; type: functional, organism-based; settings: not given

With `O=C(OC1C=CC(n2ccc(=O)n(Cc3ccccc3)c2=O)C1)c1ccccc1` (racemic) as the molecule, how does the Activity read?
Its Activity is “inactive”.

biological target: Human immunodeficiency virus type 1 reverse transcriptase (Human immunodeficiency virus 1, UniProt Q72547, L100I); assay: Inhibition of HIV1 reverse transcriptase L100I mutant expressed in Escherichia coli BL21 (DE3) using [alpha-32P]dATP after 30 mins by liquid scintillation counting; settings: not given

With `O=C(OC1C=CC(n2ccc(=O)n(Cc3ccccc3)c2=O)C1)c1ccccc1` (racemic) as the molecule, how does the IC50 read?
Its IC50 is 1.2 µM.

biological target: Human immunodeficiency virus type 1 reverse transcriptase (Human immunodeficiency virus 1, UniProt Q72547, G190A); assay: Inhibition of HIV1 reverse transcriptase G190A mutant expressed in Escherichia coli BL21 (DE3) using [alpha-32P]dATP after 30 mins by liquid scintillation counting; settings: not given

With `O=C(OC1C=CC(n2ccc(=O)n(Cc3ccccc3)c2=O)C1)c1ccccc1` (racemic) as the molecule, how does the IC50 read?
The IC50 was greater than 50 µM.
